Where two headings read alike, the source gives them in different places.
Test system: HBV rcDNA in HepDE19 cells
Assay: HepDE19 assay with bDNA quantitation of HBV rcDNA
Assay type: cell-based, hepatitis B virus
Conditions: inhibition of rcDNA formation, bDNA quantitation, read-out: DE-19bDNA EC50
[1] = Hepatitis B virus, HepDE19, HepDE19 assay

SMILES	EC50 (HepDE19 assay) [nM]	EC50 [1] [nM]
CN(C(=O)c1cc2cccc(F)c2[nH]1)C1COCc2[nH]c(=O)c3cc(F)c(F)cc3c21 (single isomer, unassigned) [Compound 40, N-(8,9-Difluoro-6-oxo-1,4,5,6-tetrahydro-2H-pyrano[3,4-c]isoquinolin-1-yl)-7-fluoro-N-methyl-1H-indole-2-carboxamide]	10	
CN(C(=O)c1ccc2cn[nH]c2c1)C1CNCc2[nH]c(=O)c3cc(F)c(F)cc3c21 (single isomer, unassigned) [Compound 495, N-(8,9-difluoro-6-oxo-1,2,3,4,5,6-hexahydrobenzo[c][1,7]naphthyridin-1-yl)-N-methyl-1H-indazole-6-carboxamide]	> 25000	
[2H][C@@]1(N(C(=O)c2cc3sc(Cl)cc3[nH]2)[13C]([2H])([2H])[2H])COCc2[nH]c(=O)c3cc(F)c(F)cc3c21 [Compound 516, (S)-2-Chloro-N-(8,9-difluoro-6-oxo-1,4,5,6-tetrahydro-2H-pyrano[3,4-c]isoquinolin-1-yl-1-d)-N-(methyl-^13C-d3)-4H-thieno[3,2-b]pyrrole-5-carboxamide]		10
CN(C(=O)c1cc(F)c(Br)c(F)c1)C1CNCc2[nH]c(=O)c3cc(F)ccc3c21 (single isomer, unassigned) [Compound 170, 4-Bromo-3,5-difluoro-N-(8-fluoro-6-oxo-1,2,3,4,5,6-hexahydrobenzo[c][1,7]naphthyridin-1-yl)-N-methylbenzamide]	22000	
CCc1cc(F)cc2[nH]c(C(=O)N(C)C3COCc4[nH]c(=O)c5cc(F)ccc5c43)cc12 (single isomer, unassigned) [Compound 394, 4-Ethyl-6-fluoro-N-(8-fluoro-6-oxo-1,4,5,6-tetrahydro-2H-pyrano[3,4-c]isoquinolin-1-yl)-N-methyl-1H-indole-2-carboxamide]	460	
CN(C(=O)c1cc2c(NS(C)(=O)=O)cc(F)cc2[nH]1)[C@@H]1COCc2[nH]c(=O)c3cc(F)c(F)cc3c21 [Compound 362, (S)-N-(8,9-Difluoro-6-oxo-1,4,5,6-tetrahydro-2H-pyrano[3,4-c]isoquinolin-1-yl)-6-fluoro-N-methyl-4-(methylsulfonamido)-1H-indole-2-carboxamide]		14000
CN(C(=O)c1cc2ccc(F)cc2[nH]1)C1COCc2[nH]c(=O)c3cc(F)c(F)cc3c21 (single isomer, unassigned) [Compound 26, N-(8,9-Difluoro-6-oxo-1,4,5,6-tetrahydro-2H-pyrano[3,4-c]isoquinolin-1-yl)-6-fluoro-N-methyl-1H-indole-2-carboxamide]	10	
CN(C(=O)c1cnn(C(C)(C)C)c1)[C@@H]1COCc2[nH]c(=O)c3cc(F)c(F)cc3c21 [Compound 196, (S)-1-(tert-Butyl)-N-(8,9-difluoro-6-oxo-1,4,5,6-tetrahydro-2H-pyrano[3,4-c]isoquinolin-1-yl)-N-methyl-1H-pyrazole-4-carboxamide]		3100
CN(C(=O)c1cc2cc(C(F)F)ccn2c1)C1CNCc2[nH]c(=O)c3cc(F)c(F)cc3c21 (single isomer, unassigned) [Compound 386, N-(8,9-Difluoro-6-oxo-1,2,3,4,5,6-hexahydrobenzo[c][1,7]naphthyridin-1-yl)-7-(difluoromethyl)-N-methylindolizine-2-carboxamide]		1900
CN(C(=O)c1cc2c(F)c(F)ccc2[nH]1)C1COCc2[nH]c(=O)c3cc(F)c(F)cc3c21 (single isomer, unassigned) [Compound 46, N-(8,9-Difluoro-6-oxo-1,4,5,6-tetrahydro-2H-pyrano[3,4-c]isoquinolin-1-yl)-4,5-difluoro-N-methyl-1H-indole-2-carboxamide]	5	
CC(=O)N1Cc2[nH]c(=O)c3cc(F)c(F)cc3c2C(N(C)C(=O)c2cc3ccccc3[nH]2)C1 (single isomer, unassigned) [Compound 81, N-(3-Acetyl-8,9-difluoro-6-oxo-1,2,3,4,5,6-hexahydrobenzo[c][1,7]naphthyridin-1-yl)-N-methyl-1H-indole-2-carboxamide]	14000	
CN(C(=O)c1cc(F)c(Br)c(F)c1)C1COCc2[nH]c(=O)c3cc(F)ccc3c21 (single isomer, unassigned) [Compound 167, 4-Bromo-3,5-difluoro-N-(8-fluoro-6-oxo-2,4,5,6-tetrahydro-1H-pyrano[3,4-c]isoquinolin-1-yl)-N-methylbenzamide]	10	
C=C(C(=O)N(C)[C@@H]1COCc2[nH]c(=O)c3cc(F)c(F)cc3c21)c1ccccc1 [Compound 189, (S)-N-(8,9-Difluoro-6-oxo-1,4,5,6-tetrahydro-2H-pyrano[3,4-c]isoquinolin-1-yl)-N-methyl-2-phenylacrylamide]		4400
CN(C(=O)C(O)(c1ccccc1)c1ccccc1)[C@@H]1COCc2[nH]c(=O)c3cc(F)c(F)cc3c21 [Compound 229, (S)-N-(8,9-Difluoro-6-oxo-1,4,5,6-tetrahydro-2H-pyrano[3,4-c]isoquinolin-1-yl)-2-hydroxy-N-methyl-2,2-diphenylacetamide]		8400
CN(C(=O)c1cc(F)c(Br)c(F)c1)C1CNCc2[nH]c(=O)c3cc(F)c(F)cc3c21 (single isomer, unassigned) [Compound 165, 4-Bromo-N-(8,9-difluoro-6-oxo-1,2,3,4,5,6-hexahydrobenzo[c][1,7]naphthyridin-1-yl)-3,5-difluoro-N-methylbenzamide]	20	
CN(C(=O)c1ccc(Cl)c(F)c1)[C@@H]1COCc2[nH]c(=O)c3cc(F)c(F)cc3c21 [Compound 75, (S)-4-Chloro-N-(8,9-difluoro-6-oxo-1,4,5,6-tetrahydro-2H-pyrano[3,4-c]isoquinolin-1-yl)-3-fluoro-N-methylbenzamide]		20
CN(C(=O)c1cc2sc(Cl)cc2[nH]1)[C@@H]1COC(O)c2[nH]c(=O)c3cc(F)c(F)cc3c21 (stereo partly drawn) [Compound 487, 2-Chloro-N-((1S)-8,9-difluoro-4-hydroxy-6-oxo-1,4,5,6-tetrahydro-2H-pyrano[3,4-c]isoquinolin-1-yl)-N-methyl-4H-thieno[3,2-b]pyrrole-5-carboxamide]		20
O=C(N[C@@H]1COCc2[nH]c(=O)c3cc(F)c(F)cc3c21)c1cc2c(F)cc(F)cc2[nH]1 [Compound 157, (S)-N-(8,9-Difluoro-6-oxo-1,4,5,6-tetrahydro-2H-pyrano[3,4-c]isoquinolin-1-yl)-4,6-difluoro-1H-indole-2-carboxamide]		250
CN1Cc2[nH]c(=O)c3cc(F)c(F)cc3c2C(N(C)C(=O)c2cc3ccccc3[nH]2)C1 (single isomer, unassigned) [Compound 63, N-(8,9-Difluoro-3-methyl-6-oxo-1,2,3,4,5,6-hexahydrobenzo[c][1,7]naphthyridin-1-yl)-N-methyl-1H-indole-2-carboxamide]	170	
CN(C(=O)c1cc2c(F)cccn2c1)C1C[S+]([O-])Cc2[nH]c(=O)c3cc(F)c(F)cc3c21 (single isomer, unassigned) [Compound 149, N-(8,9-Difluoro-3-oxido-6-oxo-1,4,5,6-tetrahydro-2H-thiopyrano[3,4-c]isoquinolin-1-yl)-8-fluoro-N-methylindolizine-2-carboxamide]	150	
CN(C(=O)c1ccc(Cl)c(=O)[nH]1)[C@@H]1COCc2[nH]c(=O)c3cc(F)c(F)cc3c21 [Compound 201, (S)-5-Chloro-N-(8,9-difluoro-6-oxo-1,4,5,6-tetrahydro-2H-pyrano[3,4-c]isoquinolin-1-yl)-N-methyl-6-oxo-1,6-dihydropyridine-2-carboxamide]		10000
CN(C(=O)c1ccc(Oc2cccc(F)c2)cc1)[C@@H]1COCc2[nH]c(=O)c3cc(F)c(F)cc3c21 [Compound 237, (S)-N-(8,9-Difluoro-6-oxo-1,4,5,6-tetrahydro-2H-pyrano[3,4-c]isoquinolin-1-yl)-4-(3-fluorophenoxy)-N-methylbenzamide]		6900
CN(C(=O)c1c[nH]c(=O)c(Cl)c1)[C@@H]1COCc2[nH]c(=O)c3cc(F)c(F)cc3c21 [Compound 215, (S)-5-Chloro-N-(8,9-difluoro-6-oxo-1,4,5,6-tetrahydro-2H-pyrano[3,4-c]isoquinolin-1-yl)-N-methyl-6-oxo-1,6-dihydropyridine-3-carboxamide]		20100
CN(C(=O)c1cc2cc(S(C)(=O)=O)ccc2[nH]1)[C@@H]1COCc2[nH]c(=O)c3cc(F)c(F)cc3c21 [Compound 346, (S)-N-(8,9-Difluoro-6-oxo-1,4,5,6-tetrahydro-2H-pyrano[3,4-c]isoquinolin-1-yl)-N-methyl-5-(methylsulfonyl)-1H-indole-2-carboxamide]		6700
CN(C(=O)C(F)(F)c1ccccc1)[C@@H]1COCc2[nH]c(=O)c3cc(F)c(F)cc3c21 [Compound 512, (S)-N-(8,9-Difluoro-6-oxo-1,4,5,6-tetrahydro-2H-pyrano[3,4-c]isoquinolin-1-yl)-2,2-difluoro-N-methyl-2-phenylacetamide]		25000
CN(C(=O)C1CN(c2csc(Cl)c2)C1)[C@@H]1COCc2[nH]c(=O)c3cc(F)c(F)cc3c21 [Compound 370, (S)-1-(5-Chlorothiophen-3-yl)-N-(8,9-difluoro-6-oxo-1,4,5,6-tetrahydro-2H-pyrano[3,4-c]isoquinolin-1-yl)-N-methylazetidine-3-carboxamide]		490
CN(C(=O)c1cc2cc(F)c(C(F)F)cc2[nH]1)[C@@H]1COC(O)c2[nH]c(=O)c3cc(F)c(F)cc3c21 (stereo partly drawn) [Compound 488, N-((1S)-8,9-Difluoro-4-hydroxy-6-oxo-1,4,5,6-tetrahydro-2H-pyrano[3,4-c]isoquinolin-1-yl)-6-(difluoromethyl)-5-fluoro-N-methyl-1H-indole-2-carboxamide]		10
CN(C(=O)c1cc2c(F)cc(F)cc2[nH]1)C1COCc2[nH]c(=O)c3cc(F)ccc3c21 (single isomer, unassigned) [Compound 35, 4,6-Difluoro-N-(8-fluoro-6-oxo-1,4,5,6-tetrahydro-2H-pyrano[3,4-c]isoquinolin-1-yl)-N-methyl-1H-indole-2-carboxamide]	1400	

From patent publication US20240228504A1, “SUBSTITUTED TRICYCLIC AMIDES, ANALOGUES THEREOF, AND METHODS USING SAME” (Arbutus Biopharma Corporation, priority 2020, published 2024)
